How the values were obtained:
ATP = test: Measurement of ATP amount in C. elegans; type: in vivo; settings: C. elegans treated with DDS; FIG. 9
Procedure: The amount of ATP was measured by slightly modifying the method as mentioned above. In order to, analyze the total amount of ATP, C. elegans was cultured by feeding only on PABA or by feeding on PABA and dapsone, and then was washed with S Basal buffer solution (0.1 M NaCl/0.05 M potassium phosphate buffer, pH 6.0) to remove a contaminant and prepare a sample for measuring. The sample was ultimately adjusted to be 100 ul and then froze at −80° C. C. elegans that was frozen was immediately heated for 15 minutes to erupt ATP and then maintained at a cold condition. Since then, the residue of C. elegans was removed by using a centrifuge (at 15,000 g for 5 minutes). The amount of ATP was measured by using the reagent of bioluminescence assay kit CLS II (Roche Molecular Biochemicals) and Luminometer (available from PerkinElmer company). The amount of ATP was standardized with the amount of protein.

[1] = biological target: T1, Type I pyruvate kinase of rabbit muscle (Oryctolagus cuniculus, UniProt P11974); test: Pyruvate kinase activity in vitro (LDH-coupled, 340 nm); type: biochemical; settings: DDS added directly along with PK; FIG. 16A
T1 construct: purchased Sigma; host or cells: rabbit muscle
Procedure: PK activity was analyzed through the decrease degree of absorbance at 340 nm by using the change result from pyruvate and NADH to lactate and NAD by lactate dehydrogenase (LDH). The pyruvate and ATP used for the above process were produced from phosphoenolpyruvate (PEP) and ADP by PK. The analysis in vitro was measured by adding directly DDS along with PK to the above reaction mixture and the analysis in vivo was measured by adding worms that fed on DDS.
Samples were homogenized by rupturing C. elegans with glass bead Precellys 24 homogenizer, twice for 20 seconds, at 5000 rpm in a 100 mM potassium phosphate buffer, pH 7.6, at 37° C. A CHAPS was added to the homogenized sample to be 1% of the final concentration and then centrifuged at 15000 g for 20 minutes. The measurement of pyruvate kinase(PK) activity was performed at 37° C. by adding 300 uL of the reaction mixture contained 100 mM potassium phosphate buffer at pH 7.6 and 37° C., 100 mM MgSO4, 1.3 mM β-NADH, 5000 units/mL of lactate dehydrogenase (LDH), 2 mM adenosine diphosphate (ADP) and 17 mM phosphoenolpyruvate (PEP) into the sample. The change of oxidation degree of NADH was measured at 340 nm of absorbance. PK 1 unit was defined as the change into 1.0 umole of pyruvate per a minute at pH 7.6 and 37° C. […] Type I pyruvate kinase (Sigma) of rabbit muscle was used for in vitro experiment.

pyruvate = test: Pyruvate content in C. elegans (fluorescence-based assay kit); type: in vivo; settings: C. elegans that fed on DDS; FIG. 17A
Procedure: The measurement of pyruvate content was performed by using Fluorescence-based assay kit (BioVision) was purchased according to its instructions. […] Three measurements were performed.

[2] = tested on: cytosolic superoxide anion; test: Superoxide anion in cell (cytoplasm), DHE; type: cell-based; settings: human diploid fibroblast; 1 mM PQ 30 minutes; FIG. 24A
Procedure: The cell was treated with 1 mM of PQ for 30 minutes, and then was cultured at 37° C. for 15 minutes after adding oxidant-sensitive fluorescent dyes (A) DHE (5 uM, cytosol specific) and (B) MitoSOX (5 uM, mitochondria specific), respectively. For identifying the change of fluorescence, the excitation and emission wavelength of DHE were measured at 515 and 590 nm and MitoSOX was measured at 520 and 580 nm by using a multiwell plate reader. The results were indicated by calculating the results of three experiments as a control rate (%). The statistical significant was expressed as *, # p<0.005; ** p<0.05.
The cell was twice washed with DPBS and Ethidium-DNA that fluoresces was immediately measured at excitation wavelength 515 nm and emission wavelength 590 nm by using Cary Eclipse fluorescence spectrophotometer (Varian, Calif., USA) machine.

SOD1 = test: Western blot of SOD1 amount in human diploid fibroblast; type: cell-based; settings: various concentrations of DDS, FIG. 25B
Procedure: Trolox that is well known as a water-soluble vitamin E was used as a positive control.
The isolated sample was transferred to a nitrocellulose and analyzed through Western Blot using MS601 (Total OXPHOS Complexes Detection Kit, MitoSciences, containing antibodies against SDH30 subunit of complex II (5 μg/ml), Core2 subunit of complex III (0.2 μg/ml), COXII subunit of complex IV (2 μg/ml), and subunit α of F1-ATPase of complex V (0.2 μg/ml)), PCKpan-p, PCKα/β-p, PKCδ-p (Phospho-PKC antibody Sampler Kit, Cell Signaling Technology), PKC α, PCKβ, PKCδ (Life Technologies), β-Actin (Sigma), and the like. The measurement was performed by using a horseradish […] secondary antibodies (Zymed) and ECL (Pierce). The results were shown through visualizing by using Autoradiographic film (Image Reader, LAS-3000Fujifilm, Japan).

NOX4 = NOX4 mRNA level by RT-PCR in PQ-treated human diploid fibroblast; type: cell-based; settings: 1 mM PQ for 5 minutes, FIG. 26
Procedure: The amount of NOX4 (HDF specific) mRNA, which is a source for generating a cytosolic superoxide anion, increased by PQ was measured. For FIG. 26B, it was quantitived as % rate as compared with a control (non-treated human diploid fibroblast).
RNA of the human diploid fibroblast was isolated by using Trizol Reagent (MRC Cincinnati, USA), and NOX4 and GAPDH were measured through RT-PCR by using Biometra T Gradient PCR (Biometra, Goettingen, Germany) machine. A specific NOX primer; 5′-[…]-3′ (Forward Primer) and 5′-[…]-3′ (Reverse Primer); Primer for GAPDH 5′-[…]-3′ (Forward Primer) and 5′-[…]-3′ (Reverse Primer) were used as primers. DNA that was manipulated by PCR was isolated through 1.2% agarose gel electrophoresis, stained with EtBr to be visualized and then taken a photography that can be shown through UV.

T1 sequence (P11974 whole entry): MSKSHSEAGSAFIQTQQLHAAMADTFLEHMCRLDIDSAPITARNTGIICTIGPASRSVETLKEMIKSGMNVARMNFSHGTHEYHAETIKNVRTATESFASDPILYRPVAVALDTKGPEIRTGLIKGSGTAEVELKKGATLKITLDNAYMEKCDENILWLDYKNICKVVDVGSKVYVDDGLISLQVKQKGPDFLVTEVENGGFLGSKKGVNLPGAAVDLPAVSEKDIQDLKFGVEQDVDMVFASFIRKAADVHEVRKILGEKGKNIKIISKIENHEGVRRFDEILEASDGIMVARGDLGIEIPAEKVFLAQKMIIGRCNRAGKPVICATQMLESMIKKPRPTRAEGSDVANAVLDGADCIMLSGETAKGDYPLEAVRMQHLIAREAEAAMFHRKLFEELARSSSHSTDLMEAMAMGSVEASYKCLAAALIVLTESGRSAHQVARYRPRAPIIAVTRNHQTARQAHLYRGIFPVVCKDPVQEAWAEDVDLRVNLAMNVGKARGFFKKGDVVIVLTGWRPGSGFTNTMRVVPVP

Q: Which results are given for `Nc1ccc(S(=O)(=O)c2ccc(N)cc2)cc1` [DDS, 4,4′-diaminodiphenylsulfone]?
A: ATP amount (ATP): decreased; biochemical activity of PK in vitro [1]: suppresses; content of pyruvate compared with a control (pyruvate): high content of pyruvate; superoxide anion of cytoplasm produced by PQ (DHE assay) [2]: reduced depending upon the concentration of DDS; amount of SOD1 (SOD1): decreases; NOX4 expression increased by PQ (NOX4): decreases
